Data as given in ChEMBL document CHEMBL3862040, “Identification, Synthesis, and Biological Evaluation of the Major Human Metabolite of NLRP3 Inflammasome Inhibitor MCC950” (ACS Med Chem Lett, 2016).
pIC50: −log10 of the molar value.

Tests used:
[1] = target: NACHT, LRR and PYD domains-containing protein 3 (Homo sapiens, UniProt Q96P20); experiment: Inhibition of NLRP3 inflammasome in LPS-stimulated human monocyte derived macrophages assessed as reduction in NLRP3 inflammasome-induced IL-1beta production preincubated for 30 mins followed by NLRP3 stimulation with ATP for 1 hr by ELISA
[2] = Drug level in human liver microsomes treated with 5 uM MCC950 preincubated for 20 mins followed by NADPH addition measured after 120 mins by HPLC/ESI-SRM-MS/MS analysis; format: ADME; conditions: 2 h
[3] = Cytotoxicity against human HEK293 cells assessed as decrease in cell viability after 20 hrs by resazurin based fluorescence assay; format: toxicity
[4] = Cytotoxicity against human HepG2 cells assessed as decrease in cell viability after 20 hrs by resazurin based fluorescence assay; format: toxicity
[5] = Drug level in human liver microsomes treated with 5 uM MCC950 preincubated for 20 mins followed by NADPH addition measured after 120 mins by QTOF-ESI-MS/MS analysis; format: ADME; conditions: 2 h
[6] = Drug metabolism in human liver microsomes assessed as R-(+)- N-((1-hydroxy-1,2,3,5,6,7-hexahydro-s-indacen-4-yl)carbamoyl)-4-(2-hydroxypropan-2-yl)furan-2-sulfonamide formation at 5 uM preincubated for 20 mins followed by NADPH addition measured after 120 mins by QTOF-ESI-MS/MS analysis; format: ADME; conditions: 2 h
[7] = Drug metabolism in human liver microsomes assessed as N-((1-hydroxy-1,2,3,5,6,7-hexahydro-s-indacen-4-yl)carbamoyl)-4-(2-hydroxypropan-2-yl)furan-2-sulfonamide formation at 5 uM preincubated for 20 mins followed by NADPH addition measured after 120 mins by HPLC/ESI-SRM-MS/MS analysis; format: ADME; conditions: 2 h
[8] = Drug metabolism in human liver microsomes assessed as R-(+)- N-((1-hydroxy-1,2,3,5,6,7-hexahydro-s-indacen-4-yl)carbamoyl)-4-(2-hydroxypropan-2-yl)furan-2-sulfonamide formation at 5 uM preincubated for 20 mins followed by NADPH addition measured after 120 mins by HPLC/ESI-SRM-MS/MS analysis; format: ADME; conditions: 2 h

NACHT, LRR and PYD domains-containing protein 3, sequence (Q96P20 whole entry, the tested form may be a part): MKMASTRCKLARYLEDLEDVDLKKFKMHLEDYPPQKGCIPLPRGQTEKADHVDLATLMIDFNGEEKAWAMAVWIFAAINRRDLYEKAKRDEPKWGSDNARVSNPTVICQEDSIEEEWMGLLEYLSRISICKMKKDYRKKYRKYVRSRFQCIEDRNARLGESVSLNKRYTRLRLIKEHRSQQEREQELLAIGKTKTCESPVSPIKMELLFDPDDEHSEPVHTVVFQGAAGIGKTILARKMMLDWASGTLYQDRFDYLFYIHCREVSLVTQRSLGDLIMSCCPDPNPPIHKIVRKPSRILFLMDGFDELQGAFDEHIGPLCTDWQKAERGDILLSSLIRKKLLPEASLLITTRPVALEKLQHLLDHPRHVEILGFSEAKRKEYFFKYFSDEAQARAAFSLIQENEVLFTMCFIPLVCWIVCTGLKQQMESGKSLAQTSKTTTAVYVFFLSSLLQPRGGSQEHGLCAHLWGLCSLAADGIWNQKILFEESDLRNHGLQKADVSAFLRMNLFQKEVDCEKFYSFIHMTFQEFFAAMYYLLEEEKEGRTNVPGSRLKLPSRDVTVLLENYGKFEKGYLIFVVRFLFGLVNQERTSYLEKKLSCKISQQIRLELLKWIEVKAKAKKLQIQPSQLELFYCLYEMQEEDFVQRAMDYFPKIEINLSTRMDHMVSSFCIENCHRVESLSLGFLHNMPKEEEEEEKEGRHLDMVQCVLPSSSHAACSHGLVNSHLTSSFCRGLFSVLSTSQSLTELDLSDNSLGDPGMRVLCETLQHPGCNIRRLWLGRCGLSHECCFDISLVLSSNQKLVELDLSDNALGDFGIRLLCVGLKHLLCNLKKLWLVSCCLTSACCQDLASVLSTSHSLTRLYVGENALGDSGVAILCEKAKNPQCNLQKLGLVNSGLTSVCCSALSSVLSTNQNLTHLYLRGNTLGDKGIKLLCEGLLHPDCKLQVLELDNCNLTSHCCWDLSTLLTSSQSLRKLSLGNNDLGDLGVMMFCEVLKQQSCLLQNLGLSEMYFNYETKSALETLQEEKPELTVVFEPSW

SMILES | pIC50 [1] | Drug metabolism [2] | CC50 at 20 h [3] | CC50 at 20 h [4] | Drug metabolism [5] | Drug metabolism [6] | Drug metabolism [7] | Drug metabolism [8]
CC(C)(O)c1coc(S(=O)(=O)NC(=O)Nc2c3c(cc4c2CCC4O)CCC3)c1 (racemic) | 5.71 | Metabolite_Detected | > 62.5 µM | > 62.5 µM | – | – | – | –
CC(C)(O)c1coc(S(=O)(=O)NC(=O)Nc2c3c(cc4c2C(O)CC4)CCC3)c1 (racemic) | 6.63 | – | > 62.5 µM | > 62.5 µM | – | – | – | –
CC(C)(O)c1coc(S(=O)(=O)NC(=O)Nc2c3c(cc4c2CC[C@@H]4O)CCC3)c1 | 5.20 | – | – | – | – | – | – | –
CC(C)(O)c1coc(S(=O)(=O)NC(=O)Nc2c3c(cc4c2CC[C@H]4O)CCC3)c1 | 5.91 | Metabolite_Detected | – | – | Metabolite_Detected | – | – | –
CC(C)(O)c1coc(S(=O)(=O)NC(=O)Nc2c3c(cc4c2CCC4)CCC3)c1 | – | – | > 62.5 µM | > 62.5 µM | – | Metabolite_Detected | Metabolite_Detected | Metabolite_Detected
CC(C)(O)c1coc(S(=O)(=O)NC(=O)Nc2c3c(cc4c2CC(O)C4)CCC3)c1 (centres undefined) | 5.74 | – | > 62.5 µM | > 62.5 µM | – | – | – | –
